# US4621073A, “Cyclic peptides having somatostatin activity” (Hoechst Aktiengesellschaft, priority 1983, dated 1986)
# Non-standard residues stand in square brackets, D forms with d. Residues, ends and D or L forms follow the SMILES beside them.
# What was measured:
# blood glucose = assay: potentiation of the hypoglycemic effect of insulin in adrenalectomized rats; type: in vivo, rat
# gastric acid = assay: reduction of gastric acid after intravenous administration to the rat; type: in vivo; conditions: i.v. dose of 30 μg/kg
# Experimental: The peptides according to the invention have the inhibitory properties of somatostatin, but their duration of action is considerably longer at lower doses. For example, after intravenous administration to the rat, these peptides reduce gastric acid with an ED50 of about 5 μg/kg. The reduction in gastric acid is maintained for 2 hours. […] A reduction in gastric acid is only brought about by infusing somatostatin. […] The new compounds can also be administered orally and intranasally. However, in these instances considerably higher doses are necessary because of the poorer absorption.
compound,measurement,setting,value
cyclo-(Aoc-Phe-D-Trp-Lys-Val-Phe),"potentiation of the hypoglycemic effect of insulin, effect relative to cyclo-(Pro-Phe-D-Trp-Lys-Thr-Phe)",blood glucose,at least twice
same,reduction of blood glucose,blood glucose; dose of 0.07 μg/kg^-1.min^-1,up to 24%
C[C@@H](O)[C@@H]1NC(=O)[C@H](CCCCN)NC(=O)[C@@H](Cc2c[nH]c3ccccc23)NC(=O)[C@H](Cc2ccccc2)NC(=O)[C@@H]2CCCN2C(=O)[C@H](Cc2ccccc2)NC1=O [cyclo-(Pro-Phe-D-Trp-Lys-Thr-Phe)] (cyclo(PF[dW]KTF)),effect on blood glucose,blood glucose; dose of as much as 0.318 μg/kg^-1. min^-1,completely ineffective
"C[C@H](N)C(=O)NCC(=O)N[C@H]1CSSC[C@@H](C(=O)O)NC(=O)[C@H](CO)NC(=O)[C@H]([C@@H](C)O)NC(=O)[C@H](Cc2ccccc2)NC(=O)[C@H]([C@@H](C)O)NC(=O)[C@H](CCCCN)NC(=O)[C@H](Cc2c[nH]c3ccccc23)NC(=O)[C@H](Cc2ccccc2)NC(=O)[C@H](Cc2ccccc2)NC(=O)[C@H](CC(N)=O)NC(=O)[C@H](CCCCN)NC1=O [somatostatin, Somatostatin]",effect on gastric acid,gastric acid,no effect whatever
